# From patent publication US6841657B2, “Inhibitors of HIV membrane fusion” (priority 1998, dated 2005)
# Positions of bridges follow the written chain, without caps; N, C: chain ends. Non-standard residues stand in square brackets, D forms with d.
# How the values were obtained:
# [1] = test system: hydrophobic pocket of IQN17 (gp41); experiment: 1H NMR assay of binding to the IQN17 hydrophobic pocket; parameters: species or system HIV-1; conditions: 1:1 complex with IQN17, 25° C., 100 mM NaCl, 50 mM sodium phosphate pH 7.5, D2O
# Source text: NMR experiments were used to assay the binding of each D-peptide to IQN17. The single tryptophan residue of IQN17 (denoted Trp-571) provides an excellent probe of specific binding to the hydrophobic pocket of gp41. […] To test a compound for binding to the gp41 pocket, two one-dimensional ^1H NMR measurements were made on samples in deuterated buffers. First, a reference (control) spectrum of IQN17 was taken, identifying the Trp571 chemical shifts in the unbound form. A second spectrum was acquired on a sample containing both IQN17 and the compound in question. An optional third spectrum of the D-peptide (or other small molecule, or mix of molecules) was also taken. ^1H NMR experiments were performed on a Bruker AMX 500 spectrometer. Data was processed in Felix 98.0 (MSI) on Silicon Graphics computers, and all spectra were referenced to DSS. All experiments were performed at 25° C. in 100 mM NaCl, 50 mM sodium phosphate (pH 7.5). All buffers used were >99.7% D2O, to remove overlapping resonances from exchangeable backbone and side chain protons. Solute concentrations ranged from 0.3-1.0 mM for individual peptides, 0.8-1.0 mM for 1:1 commplexes of IQN17 with each D-peptide.
# Simple binding of two or more components is expected to result both in broader peaks (due to the increased size of the complex) and in changes in chemical shifts (due to the different chemical environments experienced by nuclei in free and bound forms). Specific binding to the hydrophobic pocket is indicated by a change in the Trp-571 chemical shifts, as well as by a broadening of peaks. Binding can also be indicated by similar changes in the chemical shifts and peak widths of the molecule (peptides and small organic molecules, for example) assayed. […] All IQN17/D-peptide complexes studied gave similar results, though varying in the degree of chemical shift dispersion (FIG. 9B). Thus, binding was indicated in all cases.
# To confirm that the strongly upfield-shifted peaks all correspond to a single sidechain (almost certainly Trp-571), two-dimensional NMR (TOCSY) experiments were performed on each of the IQN17/D-peptide complexes. As expected, the TOCSY experiments indicate that in each complex, the strongly upfield-shifted resonances all belong to the same aromatic side chain, identified as a group of four scalar-coupled protons. For several of the complexes studied, NOESY experiments also indicate contact between this sidechain and other (unassigned) aromatic groups, as expected from the IQN17/D10pep1 structure. Not all of the potential NOE crosspeaks could be resolved, due to intense spectral overlap in the 6.8-7.6 ppm region. 2D NOESY and TOCSY experiments as described in J. Cavanaugh, W. J. Fairbrother, A. G. Palmer, N. J. Skelton, Protein NMR Spectroscopy: Principles and Practice (1996) were performed on samples of IQN17 and of each complex, with mixing times ranging between 30-90 ms (NOESY) and 30-70 ms (TOCSY). Spectral widths of 11,111 Hz and 5555 Hz were used in the acquisition (t2) and indirect (t1) dimensions, respectively. TOCSY experiments employed the DIPSI-2rc mixing sequence (J. Cavanaugh, M. Rance, J. Magn. Reson. Serv. A., 105:328 (1993)).
# [2] = test system: syncytia formation between Chinese hamster ovary cell expressing HXB2 envelope and HeLa-CD4-LTR-Beta-gal cells; conditions: for IC50: read-out: IC50 cell fusion, syncytium assay, mean ± standard error, triplicate
# Method: In each instance, a blocking group (e.g., an acetyl group) was present at the N terminus and a CONH2 (amide) was present at the C-terminus.
# Inhibition of cell/cell fusion (i.e., syncytia formation) was assayed by co-culturing Chinese hamster ovary cell expressing HXB2 envelope (K. Kozarsky, et al., J. Acquir. Immune. Defic. Syndr., 2:163 (1989) and the HeLa-CD4-LTR-Beta-gal cells (M. Emerman, NIH AIDS Reagent program) in the presence of varying concentration of peptide. When mixed, these cells form syncytia, or multi-nucleated cells, which express β-galactosidase. Approximately twenty hours after co-culturing the cells, the monolayers were stained with 5-bromo-4-chloro-3-indolyl-β-D-galactoside to visualize the syncytia. The syncytia are visualized with a microscope and counted manually (a syncytia is scored as a fused cell containing three or more nuclei). The IC50 was calculated from fitting the data to a Langmuir equation [y=k/(1+[peptide]/IC50)+x], where y=number of syncytia and k and x are scaling constants.
# HIV-1 = conditions: Phase I clinical trial; cited from earlier work
# N36 peptide = target: T1, N36 peptide (Human immunodeficiency virus type 1 group M subtype B, UniProt P04578); assay type: physicochemical, HIV-1; conditions: for Tm (apparent melting temperature) of N36/C34 complex: C34 peptide 10 μM + N36 10 μM, phosphate-buffered saline pH 7.0, CD signal at 222 nm; for mean residue ellipticity [θ]222 of N36/C34 complex: CD at 222 nm, 0° C., PBS pH 7.0
# T1 construct: made in house; host or cells: chemical peptide synthesis
# Method: CD measurements were performed in phosphate-buffered saline (50 mM sodium phosphate, 150 mM NaCl, pH 7.0) with an Aviv Model 62DS spectrometer as previously described (M. Lu, S. C. Blacklow, P. S. Kim, Nat. Struct. Biol., 2:1075 (1995)). The apparent melting temperature of each complex was estimated from the maximum of the first derivative of [θ]222 with respect to temperature.
# (§1) The apparent melting temperatures (Tm) were estimated from the thermal dependence of the CD signal at 222 nm. Inhibition of viral entry was measured in a cell-culture infection assay using recombinant luciferase-expressing HIV-1. Inhibition of cell-cell fusion was measured in a syncytium assay. The means and standard errors are from triplicate trials.
# [3] = test system: recombinant luciferase-expressing HIV-1; assay type: cell-based; conditions: for IC50: recombinant luciferase-expressing HIV-1, mean ± standard error, triplicate, read-out: IC50 viral entry
# Method: The potency of C34 peptides in inhibiting viral infection and the HIV-1 infection inhibitory activity of the D-peptides were assayed using recombinant luciferase-expressing HIV-1 (Chen, B. K. et al., J. Virol., 68:654 (1994); Malashkevich, V. N., et al., Proc. Natl. Acad. Sci., USA, 95:9134 (1998)).
# as §1
Substance,binding to the hydrophobic pocket of IQN17 [1],Tm (apparent melting temperature) of N36/C34 complex (N36 peptide) [°C],mean residue ellipticity [θ]222 of N36/C34 complex (N36 peptide),IC50 [3] [nM],IC50 [2] [nM],other results
"Ac-KKGACPPLNKEWAWLCAA-CONH2 (Ac-KKG[dA][dC][dP][dP][dL][dN][dK][dE][dW][dA][dW][dL][dC][dA][dA]-NH2; disulfide 5-16 (inferred); not fully specified (residues 1, 2); printed as Ac-KKGACPPLNKEWAWLCAA-CONH2) [Peptide D10pep12]",contact the pocket with very similar binding interfaces,,,,,
"Ac-KKGACEARHREWAWLCAA-CONH2 (Ac-KKG[dA][dC][dE][dA][dR][dH][dR][dE][dW][dA][dW][dL][dC][dA][dA]-NH2; disulfide 5-16 (inferred); not fully specified (residues 1, 2); printed as Ac-KKGACEARHREWAWLCAA-CONH2) [Peptide D10pep1a]",broader peaks and dramatically different chemical shifts,,,,,IC50 for inhibition of syncytia formation relative to parent peptide without the added lysines ([2]; two additional N-terminal lysines vs parent D-peptide): approximately 2 fold
enfuvirtide,,,,,,antiviral activity in vivo (HIV-1): reduced viral loads
Ac-WMEWDAEINNYTSLIHSLIEESQNQQEKNEQELL-NH2 [Arg^633→Ala],,65,−30.7 10^3 deg cm^2 dmol^−1,2.6 ± 0.89,0.76 ± 0.07,"effect of mutation on inhibitory activity of C34 ([3]; HIV-1 viral entry and syncytium assays, vs wildtype C34): little effect"
"Ac-KKGACMRGEWEWSWLCAA-CONH2 (Ac-KKG[dA][dC][dM][dR]G[dE][dW][dE][dW][dS][dW][dL][dC][dA][dA]-NH2; disulfide 5-16 (inferred); not fully specified (residues 1, 2); printed as Ac-KKGACMRGEWEWSWLCAA-CONH2) [Peptide D10pep10]",contact the pocket with very similar binding interfaces,,,,,
"Ac-KKGACGLGQEEWFWLCAA-CONH2 (Ac-KKG[dA][dC]G[dL]G[dQ][dE][dE][dW][dF][dW][dL][dC][dA][dA]-NH2; disulfide 5-16 (inferred); not fully specified (residues 1, 2); printed as Ac-KKGACGLGQEEWFWLCAA-CONH2) [Peptide D10pep3]",contact the pocket with very similar binding interfaces,,,,,
Ac-WMEGDREINNYTSLIHSLIEESQNQQEKNEQELL-NH2 [Trp^631→Gly],,35,17.1 10^3 deg cm^2 dmol^−1,38 ± 6.1,25 ± 3.8,
Ac-GACSRSQPEWEWLCAA-CONH2 (Ac-G[dA][dC][dS][dR][dS][dQ][dP][dE][dW][dE][dW][dL][dC][dA][dA]-NH2; disulfide 3-14 (inferred)) [Peptide D10pep6],contact the pocket with very similar binding interfaces,,,,,
Ac-WMEWDREANNYTSLIHSLIEESQNQQEKNEQELL-NH2 [Ile^635→Ala],,55,−25.9 10^3 deg cm^2 dmol^−1,4.1 ± 0.91,0.96 ± 0.12,decrease in inhibitory activity relative to wildtype C34 ([3]; HIV-1 viral entry and syncytium assays): ~2 fold
Ac-GACDLKAKEWFWLCAA-CONH2 (Ac-G[dA][dC][dD][dL][dK][dA][dK][dE][dW][dF][dW][dL][dC][dA][dA]-NH2; disulfide 3-14 (inferred)) [Peptide D10pep4],contact the pocket with very similar binding interfaces,,,,,
Ac-GACEARHREWAWLCAA-CONH2 (Ac-G[dA][dC][dE][dA][dR][dH][dR][dE][dW][dA][dW][dL][dC][dA][dA]-NH2; disulfide 3-14 (inferred)) [Peptide D10pep1],contact the pocket with very similar binding interfaces,,,,,inhibition of infection of cells ([3]; infectivity assay): inhibit infection of cells
Ac-WMELDREINNYTSLIHSLIEESQNQQEKNEQELL-NH2 [Trp^631→Leu],,50,−26.7 10^3 deg cm^2 dmol^−1,5.3 ± 1,3.2 ± 0.1,
